In series [1] the target is T1, BC3H1 nicotinic acetylcholine receptor (Mus musculus, UniProt P02716+P04756+P04760+P09690).
T1 construct: endogenous in cells; host or cells: BC3H1 cells
As to conditions: 100 μM carbamoylcholine, cited from earlier work.

The target of series [2] is nicotinic acetylcholine receptor (Mus musculus, UniProt P02716+P04756+P04760+P09690). Particulars: cited from earlier work.
The subject of another series is mice. Particulars: mice pretreated with EME 50 mg/kg, 126 mg/kg cocaine five minutes later; survivors/animals; cited from earlier work.
In the next series the test system is rats. Put plainly: Morris water maze probe trial with scopolamine. Particulars: for Morris water maze individual swimming trace, finding of target area: individual rat, FIGS. 1A-1C. The class given is in vivo, rat. The source says:
The Morris water maze for rats (San Diego Instruments) uses a 70 inch diameter swimming tank, in which rats, one at a time, are placed to determine the swimming time taken to find a platform, which can be visible or submerged, and is placed randomly in the tank, with its position locatable by means of navigation in response to visible clues. A video camera is positioned to record the swimming path of the rat, and computer analysis of the path permits accurate assessment of elapsed time, distance traveled, and route taken to achieve particular objectives. This technique is used to study memory, learning and spatial working, in healthy, diseased, and drug-affected states. The test can be applied acutely (probe test) or can involve considerable training and repeat measure experimental designs. The term “latency” in the context of the Morris water maze is used to depict the relation of time taken to escape from the water (Morris R., “Development of a Water-Maze Procedure for Studying Spatial Learning in The Rat,” Journal of Neuroscience Methods 11:47-60 (1984) and Wongwitdecha et al., “Effects of Social Isolation Rearing on Learning in the Morris Water Maze,” Brain Research 715:119-124 (1996), both of which are hereby incorporated by reference in their entirety).
This was a single dose probe trial in normal healthy rats with the objective of determining whether: (a) there is an effect in raising cognitive efficiency in unimpaired rats and (b) impairment caused by scopolamine can be reversed by EME.
FIGS. 1A-1C show three individual swimming traces for rats treated with a control vehicle (FIG. 1A), a combined dose of ecgonine methyl ester (EME) (10 mg/kg) and scopolamine (1 mg/kg) (FIG. 1B), and a single dose of scopolamine (1 mg/kg) (FIG. 1C). The target area was in the “south west” or bottom left quadrant of the bath. […] This observation was significant (p<0.05).
The group results in this probe trial with vehicle (VEH), EME alone, scopolamine alone, and EME plus scopolamine in the acute dose Morris water maze experiment are shown in FIG. 2. In particular, column 1 depicts the probe test results for the vehicle, column 2 depicts probe test results for EME alone, column 3 depicts probe test results for scopolamine alone, and column 4 depicts probe test results for EME in combination with scopolamine.

A short description of series [3]: Brain and plasma concentrations after 10 mg/kg intraperitoneal doses (GC-MS).
Method: (§1) Plasma and Brain Concentrations after Intraperitoneal Doses—Twenty young adult rats in groups of four were given intraperitoneal doses of 10 mg/kg, and killed and dissected at various times after dosing. Brain and plasma concentrations were assessed by GC-MS. Samples were pre-dose, and at 1, 2, 4 and 24 hours after the dose. Each point is the mean value from four rats.
The next series in a line: in vivo. Particulars: rat, brain and plasma, ip, 10 mg/kg.
The mark [4] stands for this setting: range where effects of multiple Class 1 compounds were alleviated, read-out: KD(Alv).
Setting [5] is: read-out: KD(Alv), range where effects of multiple Class 1 compounds were alleviated.

We go through ten compounds from patent US20160193202A1, “THERAPEUTIC TREATMENT FOR DRUG POISONING AND ADDICTION” (ADISPELL, INC., priority 2013, published 2016).

Several values for one entry are separate records, joined by “and”; a condition that tells them apart may be missing. Identical values can stand only once. Entries after “also recorded” stand apart in the source; their conditions may differ. Like-named read-outs stand apart in the source and are kept apart here.

Sequence of nicotinic acetylcholine receptor (P04756 21-457): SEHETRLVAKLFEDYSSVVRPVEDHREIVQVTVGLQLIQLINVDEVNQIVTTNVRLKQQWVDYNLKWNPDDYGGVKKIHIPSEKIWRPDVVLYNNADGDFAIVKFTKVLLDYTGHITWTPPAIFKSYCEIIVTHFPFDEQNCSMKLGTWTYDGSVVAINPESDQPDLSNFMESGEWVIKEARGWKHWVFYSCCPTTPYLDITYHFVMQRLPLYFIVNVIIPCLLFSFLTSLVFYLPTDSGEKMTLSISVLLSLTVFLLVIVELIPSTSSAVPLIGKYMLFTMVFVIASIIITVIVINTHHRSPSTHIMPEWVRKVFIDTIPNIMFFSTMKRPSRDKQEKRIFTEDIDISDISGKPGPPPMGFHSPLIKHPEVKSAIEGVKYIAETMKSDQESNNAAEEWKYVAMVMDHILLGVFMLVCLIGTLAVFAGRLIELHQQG
Sequence of nicotinic acetylcholine receptor (P09690 24-501): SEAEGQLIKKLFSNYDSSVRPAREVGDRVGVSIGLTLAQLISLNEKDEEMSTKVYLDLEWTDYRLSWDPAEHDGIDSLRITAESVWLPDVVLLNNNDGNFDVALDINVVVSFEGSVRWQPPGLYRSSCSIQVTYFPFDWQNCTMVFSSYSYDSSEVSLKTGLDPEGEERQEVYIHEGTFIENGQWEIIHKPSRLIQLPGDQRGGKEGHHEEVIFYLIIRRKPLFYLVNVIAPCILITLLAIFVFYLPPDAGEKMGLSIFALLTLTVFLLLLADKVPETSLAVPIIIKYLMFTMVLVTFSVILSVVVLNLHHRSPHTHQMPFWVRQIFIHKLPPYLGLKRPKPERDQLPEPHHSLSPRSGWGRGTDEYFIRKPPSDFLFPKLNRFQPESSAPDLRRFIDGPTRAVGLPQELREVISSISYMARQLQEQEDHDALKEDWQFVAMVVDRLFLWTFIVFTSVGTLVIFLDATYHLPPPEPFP
Sequence of nicotinic acetylcholine receptor (P04760 23-519): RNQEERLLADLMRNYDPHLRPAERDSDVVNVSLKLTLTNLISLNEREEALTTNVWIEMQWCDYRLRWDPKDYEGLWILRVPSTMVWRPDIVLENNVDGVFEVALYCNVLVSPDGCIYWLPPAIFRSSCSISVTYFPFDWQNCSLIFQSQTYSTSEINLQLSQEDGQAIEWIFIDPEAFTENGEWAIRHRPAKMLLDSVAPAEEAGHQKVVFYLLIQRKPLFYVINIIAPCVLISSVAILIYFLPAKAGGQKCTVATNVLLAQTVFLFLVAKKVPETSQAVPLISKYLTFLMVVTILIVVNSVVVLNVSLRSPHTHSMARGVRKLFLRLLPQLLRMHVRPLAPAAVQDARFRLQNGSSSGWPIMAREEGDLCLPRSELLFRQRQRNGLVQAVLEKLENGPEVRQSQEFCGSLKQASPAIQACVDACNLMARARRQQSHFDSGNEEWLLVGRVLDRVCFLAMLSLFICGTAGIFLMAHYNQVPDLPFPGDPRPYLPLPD
Sequence of nicotinic acetylcholine receptor (P02716 25-520): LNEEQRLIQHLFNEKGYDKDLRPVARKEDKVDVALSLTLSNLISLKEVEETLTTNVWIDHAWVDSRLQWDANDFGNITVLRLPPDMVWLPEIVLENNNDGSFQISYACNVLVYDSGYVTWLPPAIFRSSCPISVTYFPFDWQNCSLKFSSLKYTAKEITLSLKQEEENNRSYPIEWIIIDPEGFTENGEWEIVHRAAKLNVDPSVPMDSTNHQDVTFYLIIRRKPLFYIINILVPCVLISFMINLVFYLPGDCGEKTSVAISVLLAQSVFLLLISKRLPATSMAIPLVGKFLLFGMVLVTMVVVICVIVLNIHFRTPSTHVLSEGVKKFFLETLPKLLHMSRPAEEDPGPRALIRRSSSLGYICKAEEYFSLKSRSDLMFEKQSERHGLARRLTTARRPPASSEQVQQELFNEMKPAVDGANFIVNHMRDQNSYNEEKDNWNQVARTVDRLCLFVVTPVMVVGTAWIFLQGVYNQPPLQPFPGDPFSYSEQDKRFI
T1 sequence (P04756 21-457): as the sequence (P04756 21-457) above
T1 sequence (P09690 24-501): as the sequence (P09690 24-501) above
T1 sequence (P04760 23-519): as the sequence (P04760 23-519) above
T1 sequence (P02716 25-520): as the sequence (P02716 25-520) above
Method for in vivo: as §1

For the compound “aptamer 3: Class 2 RNA aptamer, SEQ ID NO:56 (AGUAGGAAUACCCCCAUCCAAAGCUCGCUAGGCUGAACAC; RNA, backbone not given here)”, in series [1] (5 μM aptamer, −60 mV, 22° C., pH 7.4, no inhibitor), the “Effect on whole-cell current generated by carbamoylcholine” value is recorded as “no effect”.
For orientation: Kd means a measure of binding affinity in units of concentration. On to `COC(=O)C1=C(c2ccccc2)C(=O)C2CC(S(=O)(=O)c3ccccc3)C1N2C` (stereo not shown) [RCS-111-202A], for which, in series [2] (setting [4]), the Kd is 2.8 µM.
`COC(=O)C1=CC(=O)C2CC(S(=O)(=O)c3ccccc3)C1N2C` (stereo not shown) [RCS-111-140A]: the Kd in series [2] (setting [4]) is 0.8 to 8.2 µM; in series [2] (unit inferred, read-out: KD(alv)) it was 0.8 µM.
For orientation: Kp means the ratio of the level in a tissue or fluid to that in plasma or blood. On to `COC(=O)C1C(O)CC2CCC1N2C` (stereo not shown) [EME, ecgonine methyl ester], for which the “Alleviation of cocaine inhibition of the nicotinic acetylcholine receptor” value in series [1] (cocaine present (200 μM for EME)) was “Alleviation of cocaine inhibition”. Moreover, the Survival entry in the series with mice is “increased survival and 9/40”. For the same compound, the “Morris water maze probe test, group result, reversal of scopolamine impairment” value in the series on rats (EME (10 mg/kg) combined with scopolamine (1 mg/kg), single dose, group size 10) is “reversed the scopolamine effect; also recorded: restore function impaired by scopolamine”. For the same compound, the “Morris water maze probe test, group result versus controls” value in the series on rats (EME alone, single dose, normal healthy rats, group size 10) was “no effect on its own”. The “Morris water maze individual swimming trace, finding of target area” value in the series on rats is given as “found the target area”. Besides, in series [3] (predicted from persistence in rats), the “Predicted half-life in humans” value is 6 to 8 h. Besides, in series [3] (rat, 10 mg/kg IP), the “Absorption after the IP dose” value was “rapid absorption”, the “Decay of plasma concentrations” value was “biexponential decay”, the “Time of maximal brain concentration” value came to 2 h and the “Time of peak plasma concentration” value was “already peaked at one hour”. Further, in series [3] (rat, in vivo), the Brain penetration result is recorded as “readily penetrates the brain”. Further, the Kd in series [2] (setting [5]) is 0.8 to 12.7 µM. The Kp in the series “in vivo” is around 10.
For the compound `CN1C2CCC1C(C(=O)O)C(O)C2` (stereo not shown) [Ecgonine, ecgonine], the dissociation constant (Kd) in series [2] (setting [5]) is 3.5 µM.
Consider `CN1C2CC(S(=O)(=O)c3ccccc3)C1C(C(=O)O)=C(c1ccccc1)C2=O` (stereo not shown) [RCS-111-218], for which the Kd in series [2] (setting [4]) was 5 µM.
Turning to `COC(=O)C1C(OC(C)=O)CC2CCC1N2C` (stereo not shown) [3.Acetoxy EME, 3-Acetoxy EME], in series [2] (setting [4]), the Kd is 3.3 µM.
Turning to `CN1C2CCC1C(C(=O)O)C(c1ccc(Cl)cc1)C2` (stereo not shown) [RTI Compound], the Kd was 0.7 to 14 µM in series [2] (setting [5]) and 0.7 µM in series [2] (read-out: KD(alv), unit inferred).
For the compound `CN1C2CC(S(=O)(=O)c3ccccc3)C1C(C(=O)O)=CC2=O` (stereo not shown) [RCS-111-143], the Kd in series [2] (setting [4]) was 3.3 µM.
As to `CN1[C@@H]2C[C@@H](OC(=O)[C@H](CO)c3ccccc3)C[C@H]1[C@@H]1O[C@@H]12` [scopolamine, reference compound], the “Morris water maze individual swimming trace, finding of target area” value with rats is reported as “showed no preference”. Also, the “Morris water maze probe test, group result” value in the series with rats (scopolamine alone (1 mg/kg), group size 10, p<0.05) is listed as “showed the impairment”.
